Assay results from patent US20230056205A1, “SUBSTITUTED 4,6-DIHYDROSPIRO[[1,2,3]TRIAZOLO[4,5-B]PYRIDINE-7,3'-INDOLINE]-2',5(3H)-DIONE ANALOGUES” (The Board of Regents of The University of Texas System, priority 2019, published 2023).
Like-named read-outs stand apart in the source and are kept apart here.

Columns and labels:
DENV-1 replicon = test: Luciferase reporter replicon-based screening, DENV-1; type: cell-based, DENV-1 (strain WestPac); conditions: Dengue virus, DENV1, Huh-7, 48 h, read-out: EC50 DENV-1
Experimental: (§1) Luciferase Reporter Replicon-Based Screening. Huh7 cells containing a luciferase reporter replicon of DENV-1 (strain WestPac), DENV-2 (New Guinea C strain, NGC), DENV-3 (strain D3MY05-34640) and DENV-4 (strain D4MY01-22713) were used in this study. The replicon cells containing the Renilla luciferase and neomycin-resistance genes were generated using a similar strategy as described previously.^55 Briefly, Huh7 DENV-1 to -4 replicon cells were seeded at a density of 10k per well in a 96-well microplate. After incubation at 37° C. with 5% CO2 overnight, the cells were treated with 2-fold serial dilutions of compounds. Experiments were performed in duplicates. After 48 h of incubation, luciferase activities were measured using the EnduRen live-cell substrate (Promega) by following the manufacturer’s instructions. The dose-dependent curve was plotted and EC50 values were calculated using four parameter logistic regression in GraphPad software Prism 8.0.

DENV-2 replicon = test: Luciferase reporter replicon-based screening, DENV-2; type: cell-based, DENV-2 (New Guinea C strain, NGC)
Experimental: as §1

DENV-3 replicon = test: Luciferase reporter replicon-based screening, DENV-3; type: cell-based, DENV-3 (strain D3MY05-34640)
Experimental: as §1

DENV-4 replicon = test: Luciferase reporter replicon-based screening, DENV-4; type: cell-based, DENV-4 (strain D4MY01-22713); conditions: Dengue virus, DENV4, Huh-7, 48 h, read-out: EC50 DENV-4
Experimental: as §1

[1] = Cytotoxicity assay (CellTiter-Glo); type: cell-based; conditions: human, Huh7 cells stably expressing DENV-2 replicon
Experimental: Cytotoxicity Assay. Huh7 cells or Huh7 replicon cells were seeded in a 96-well plate. After incubation at 37° C. with 5% CO2 overnight, the cells were treated with 2-fold serial dilutions of compounds. Experiments were performed in duplicates. After 48 h of incubation, cell viability was measured by adding the CellTiter-Glo reagent (Promega) to each well. The cell viability in 0.45% DMSO-treatment groups was treated at 100%. The cell viability in compound-treated wells was normalized to that of DMSO-treated wells. CC50 values were calculated using four parameter logistic regression in GraphPad software Prism 8.0.

[2] = Dengue virus, DENV2, Huh-7, 48 h, read-out: EC50 DENV-2, Huh7 cells stably expressing DENV-2 replicon, 48 h
[3] = Dengue virus, DENV3, Huh-7, 48 h, read-out: EC50 DENV-3, Huh7 cells stably expressing DENV-3 replicon, 48 h
[4] = read-out: EC50 DENV-2, Huh7 cells stably expressing DENV-2 replicon, 48 h

SMILES | EC50 (DENV-1 replicon) | EC50 (DENV-2 replicon; [2]) | EC50 (DENV-3 replicon; [3]) | EC50 (DENV-4 replicon) | CC50 at 48 h [1] | EC50 (DENV-2 replicon; [4]) | EC50 (DENV-3 replicon; read-out: EC50 DENV-3, Huh7 cells stably expressing DENV-3 replicon, 48 h)
C[C@@H](c1ccc(Cl)cc1)n1nnc2c1NC(=O)C[C@]21C(=O)Nc2ccc(Cl)cc21 [Compound 1a, (R)-5'-Chloro-3-((S)-1-(4-chlorophenyl)ethyl)-4,6-dihydrospiro[[1,2,3]triazolo[4,5-b]pyridine-7,3'-indoline]-2',5(3H)-dione] | > 5 µM | 0.039 µM | 0.01 µM | > 5 µM | > 10 µM |  | 
C[C@@H](c1ccc(Cl)cc1)n1nnc2c1NC(=O)C[C@]21C(=O)N(C)c2ccc(Cl)cc21 [Compound 7, (R)-5'-Chloro-3-((S)-1-(4-chlorophenyl)ethyl)-1'-methyl-4,6-dihydrospiro[[1,2,3]triazolo[4,5-b]pyridine-7,3'-indoline]-2',5(3H)-dione] | > 5 µM | 0.019 µM | 0.004 µM | > 5 µM | > 10 µM |  | 
CCN1C(=O)[C@]2(CC(=O)Nc3c2nnn3[C@@H](C)c2ccc(Cl)cc2)c2cc(Cl)ccc21 [Compound 8, (R)-5'-Chloro-3-((S)-1-(4-chlorophenyl)ethyl)-1'-ethyl-4,6-dihydrospiro[[1,2,3]triazolo[4,5-b]pyridine-7,3'-indoline]-2',5(3H)-dione] | 2.5 µM | 0.024 µM | 0.006 µM | > 5 µM | > 10 µM |  | 
CCCN1C(=O)[C@]2(CC(=O)Nc3c2nnn3[C@@H](C)c2ccc(Cl)cc2)c2cc(Cl)ccc21 [Compound 9, (R)-5'-Chloro-3-((S)-1-(4-chlorophenyl)ethyl)-1'-propyl-4,6-dihydrospiro[[1,2,3]triazolo[4,5-b]pyridine-7,3'-indoline]-2',5(3H)-dione] | 1.9 µM | 0.071 µM | 0.01 µM | > 5 µM | > 10 µM |  | 
CCCCN1C(=O)[C@]2(CC(=O)Nc3c2nnn3[C@@H](C)c2ccc(Cl)cc2)c2cc(Cl)ccc21 [Compound 10, (R)-1'-Butyl-5'-chloro-3-((S)-1-(4-chlorophenyl)ethyl)-4,6-dihydrospiro[[1,2,3]triazolo[4,5-b]pyridine-7,3'-indoline]-2',5(3H)-dione] | 1.3 µM | 0.075 µM | 0.018 µM | > 5 µM | > 10 µM |  | 
CCCCCCN1C(=O)[C@]2(CC(=O)Nc3c2nnn3[C@@H](C)c2ccc(Cl)cc2)c2cc(Cl)ccc21 [Compound 11, (R)-5'-Chloro-3-((S)-1-(4-chlorophenyl)ethyl)-1'-hexyl-4,6-dihydrospiro[[1,2,3]triazolo[4,5-b]pyridine-7,3'-indoline]-2',5(3H)-dione] | 0.83 µM | 0.81 µM | 0.14 µM | > 5 µM | > 10 µM |  | 
CCCCCCCCCCN1C(=O)[C@]2(CC(=O)Nc3c2nnn3[C@@H](C)c2ccc(Cl)cc2)c2cc(Cl)ccc21 [Compound 12, (R)-5'-Chloro-3-((S)-1-(4-chlorophenyl)ethyl)-1'-decyl-4,6-dihydrospiro[[1,2,3]triazolo[4,5-b]pyridine-7,3'-indoline]-2ʹ,5(3H)-dione] | 3.4 µM | > 10 µM | 1.2 µM | 7.3 µM | > 10 µM |  | 
CC(C)N1C(=O)[C@]2(CC(=O)Nc3c2nnn3[C@@H](C)c2ccc(Cl)cc2)c2cc(Cl)ccc21 [Compound 13, (R)-5'-Chloro-3-((S)-1-(4-chlorophenyl)ethyl)-1'-isopropyl-4,6-dihydrospiro[[1,2,3]triazolo[4,5-b]pyridine-7,3ʹ-indoline]-2',5(3H)-dione] | 5.7 µM | 0.023 µM | 0.009 µM | > 5 µM | > 10 µM |  | 
CC(C)CN1C(=O)[C@]2(CC(=O)Nc3c2nnn3[C@@H](C)c2ccc(Cl)cc2)c2cc(Cl)ccc21 [Compound 14, (R)-5'-Chloro-3-((S)-1-(4-chlorophenyl)ethyl)-1'-isobutyl-4,6-dihydrospiro[[1,2,3]triazolo[4,5-b]pyridine-7,3'-indoline]-2',5(3H)-dione] | 1.3 µM | 0.15 µM | 0.02 µM | > 5 µM | > 10 µM |  | 
C[C@@H](c1ccc(Cl)cc1)n1nnc2c1NC(=O)C[C@]21C(=O)N(Cc2ccc(F)cc2)c2ccc(Cl)cc21 [Compound 25, (R)-5'-Chloro-3-((S)-1-(4-chlorophenyl)ethyl)-1'-(4-fluorobenzyl)-4,6-dihydrospiro[[1,2,3]triazolo[4,5-b]pyridine-7,3'-indoline]-2',5(3H)-dione] | 5 µM | 0.14 to 0.29 µM |  | 10 µM | > 10 µM | 0.16 µM | 
C[C@@H](c1ccc(Cl)cc1)n1nnc2c1NC(=O)C[C@]21C(=O)N(Cc2cccc(F)c2)c2ccc(Cl)cc21 [Compound 26, (R)-5'-Chloro-3-((S)-1-(4-chlorophenyl)ethyl)-1'-(3-fluorobenzyl)-4,6-dihydrospiro[[1,2,3]triazolo[4,5-b]pyridine-7,3'-indoline]-2',5(3H)-dione] | 10 µM |  |  | > 5 µM | > 10 µM |  | 
COCOCCN1C(=O)[C@]2(CC(=O)Nc3c2nnn3[C@@H](C)c2ccc(Cl)cc2)c2cc(Cl)ccc21 [Compound 38, (R)-5'-Chloro-3-((S)-1-(4-chlorophenyl)ethyl)-1'-(2-(methoxymethoxy)ethyl)-4,6-dihydrospiro[[1,2,3]triazolo[4,5-b]pyridine-7,3'-indoline]-2',5(3H)-dione] | > 5 µM |  |  | > 5 µM | > 10 µM |  | 
CCOC(CN1C(=O)[C@]2(CC(=O)Nc3c2nnn3[C@@H](C)c2ccc(Cl)cc2)c2cc(Cl)ccc21)OCC [Compound 41, (R)-5'-Chloro-3-((S)-1-(4-chlorophenyl)ethyl)-1'-(2,2-diethoxyethyl)-4,6-dihydrospiro[[1,2,3]triazolo[4,5-b]pyridine-7,3ʹ-indoline]-2',5(3H)-dione] | > 5 µM |  |  | > 5 µM | > 10 µM |  | 
COC(=O)CN1C(=O)[C@]2(CC(=O)Nc3c2nnn3[C@@H](C)c2ccc(Cl)cc2)c2cc(Cl)ccc21 [Compound 43, Methyl 2-((R)-5'-chloro-3-((S)-1-(4-chlorophenyl)ethyl)-2',5-dioxo-3,4,5,6-tetrahydrospiro[[1,2,3]triazolo[4,5-b]pyridine-7,3'-indolin]-1'-yl)acetate] | > 5 µM |  | 0.009 to 0.076 µM | > 5 µM | > 10 µM |  | 0.011 µM
C[C@@H](c1ccc(Cl)cc1)n1nnc2c1NC(=O)C[C@]21C(=O)N(CC(=O)O)c2ccc(Cl)cc21 [Compound 45, 2-((R)-5'-Chloro-3-((S)-1-(4-chlorophenyl)ethyl)-2',5-dioxo-3,4,5,6-tetrahydrospiro[[1,2,3]triazolo[4,5-b]pyridine-7,3'-indolin]-1ʹ-yl)acetic acid] |  | 2.4 µM |  |  | > 10 µM |  | 
C[C@@H](c1ccc(Cl)cc1)n1nnc2c1NC(=O)C[C@]21C(=O)N(CCCCCl)c2ccc(Cl)cc21 [Compound 48, (R)-5'-Chloro-1'-(4-chlorobutyl)-3-((S)-1-(4-chlorophenyl)ethyl)-4,6-dihydrospiro[[1,2,3]triazolo[4,5-b]pyridine-7,3'-indoline]-2',5(3H)-dione] | > 5 µM | 0.037 to 0.29 µM |  | > 5 µM | > 10 µM | 0.073 µM | 
C[C@@H](c1ccc(Cl)cc1)n1nnc2c1NC(=O)C[C@]21C(=O)N(CCCCCCBr)c2ccc(Cl)cc21 [Compound 49, (R)-1'-(6-Bromohexyl)-5'-chloro-3-((S)-1-(4-chlorophenyl)ethyl)-4,6-dihydrospiro[[1,2,3]triazolo[4,5-b]pyridine-7,3'-indoline]-2ʹ,5(3H)-dione] |  | 3 µM |  |  | > 10 µM |  | 
C[C@@H](c1ccc(Cl)cc1)n1nnc2c1NC(=O)C[C@]21C(=O)N(CCCCCCCCBr)c2ccc(Cl)cc21 [Compound 50, (R)-1'-(8-bromooctyl)-5'-chloro-3-((S)-1-(4-chlorophenyl)ethyl)-4,6-dihydrospiro[[1,2,3]triazolo[4,5-b]pyridine-7,3'-indoline]-2',5(3H)-dione] |  | > 5 µM |  |  | > 10 µM |  | 
